Reference: the supplement of paper PMC13380429
± gives the standard deviation of the averaged measurements.

Legend:
Conditions in all cases: 72 h
[1] = test system: Caco-2; test: cell viability relative to DMSO; higher = less toxic
[2] = test system: Calu-3; test: as above
[3] = test system: HepG2; test: as above
[4] = test system: U2OS; test: as above
[5] = test system: Vero E6; test: as above
[6] = test system: Caco-2; test: relative viability EC50 (midpoint between 100% and the lowest measured viability); higher = less toxic
[7] = test system: Calu-3; test: as above
[8] = test system: HepG2; test: as above
[9] = test system: U2OS; test: as above
[10] = test system: Vero E6; test: as above
[11] = test system: Caco-2; test: drug sensitivity score (DSS) for viability; higher = more toxic; extreme values may be limits of the assay
[12] = test system: Calu-3; test: as above
[13] = test system: HepG2; test: as above
[14] = test system: U2OS; test: as above
[15] = test system: Vero E6; test: as above

Row | Structure (SMILES) | cell viability ([1]; 1 nM) | cell viability ([1]; 10 nM) | cell viability ([1]; 100 nM) | cell viability ([1]; 1000 nM) | cell viability ([1]; 10000 nM) | cell viability ([2]; 1 nM) | cell viability ([2]; 10 nM) | cell viability ([2]; 100 nM) | cell viability ([2]; 1000 nM) | cell viability ([2]; 10000 nM) | cell viability ([3]; 1 nM) | cell viability ([3]; 10 nM) | cell viability ([3]; 100 nM) | cell viability ([3]; 1000 nM) | cell viability ([3]; 10000 nM) | cell viability ([4]; 1 nM) | cell viability ([4]; 10 nM) | cell viability ([4]; 100 nM) | cell viability ([4]; 1000 nM) | cell viability ([4]; 10000 nM) | cell viability ([5]; 1 nM) | cell viability ([5]; 10 nM) | cell viability ([5]; 100 nM) | cell viability ([5]; 1000 nM) | cell viability ([5]; 10000 nM) | relative viability EC50 [6] | relative viability EC50 [7] | relative viability EC50 [8] | relative viability EC50 [9] | relative viability EC50 [10] | drug sensitivity score [11] | drug sensitivity score [12] | drug sensitivity score [13] | drug sensitivity score [14] | drug sensitivity score [15]
1 | OC[C@H]1O[C@@H](Oc2cc(O)cc(/C=C/c3ccc(O)cc3)c2)[C@H](O)[C@@H](O)[C@@H]1O [polydatin] | 99.4% | 97.2% | 97.4% | 101% | 96.3% | 100% | 101% | 96.9% | 103% | 102% | 98.1% | 93.9% | 93.2% | 96.6% | 96.8% | 101% | 103% | 102% | 99.4% | 98.2% | 101% | 104% | 95.7% | 100% | 99% | > 10 µM | > 10 µM | > 10 µM | > 10 µM | > 10 µM | 0 | 0 | 0 | 0 | 0
2 | CC(C)N(CCNC(=O)CN1CCCC1=O)C(C)C [pramiracetam] | 94.6% | 93.6% | 114% | 96.4% | 98.9% | 95.7% | 103% | 109% | 100% | 103% | 101% | 100% | 97.6% | 107% | 104% | 98.8% | 93.2% | 103% | 95.6% | 105% | 93.9% | 97% | 94.4% | 99.7% | 108% | > 10 µM | > 10 µM | > 10 µM | > 10 µM | > 10 µM | 0 | 0 | 0 | 0 | 0
3 | CCCC(C(=O)OCCN(CC)CC)(c1ccccc1)c1ccccc1 [proadifen] | 89.8% | 101% | 102% | 101% | 87.9% | 99.3% | 93.1% | 101% | 105% | 99.6% | 101% | 100% | 92.6% | 95% | 88.1% | 93% | 97.9% | 99.1% | 102% | 98.5% | 97.9% | 96% | 98.4% | 97.3% | 99.8% | > 10 µM | > 10 µM | > 10 µM | > 10 µM | > 10 µM | 0 | 0 | 0 | 0 | 0
4 | CCN(CC)CCNC(=O)c1ccc(N)cc1 [procainamide] | 88.5% | 97.6% | 96.1% | 105% | 101% | 105% | 110% | 93.5% | 99.5% | 98.7% | 99.9% | 115% | 107% | 102% | 106% | 94.9% | 97.9% | 98.8% | 101% | 100% | 95.9% | 97.4% | 92.6% | 94.1% | 106% | > 10 µM | > 10 µM | > 10 µM | > 10 µM | > 10 µM | 0 | 0 | 0 | 0 | 0
5 | COc1ccc2nc3cc(Cl)ccc3c(Nc3cc(CN4CCCC4)c(O)c(CN4CCCC4)c3)c2n1 [pyronaridine] | 99.2% | 95.8% | 100% | 87.9% | 29.4% | 102% | 111% | 95.5% | 104% | 46.4% | 105% | 87% | 99.8% | 90.5% | -0.1% | 98.3% | 104% | 97.2% | 102% | 31.7% | 104% | 102% | 108% | 96.7% | 0.1% | 1.87 µM | 3.54 µM | 2.38 µM | 3.34 µM | 2.93 µM | 5.9 | 2.5 | 7.1 | 3.6 | 6
6 | CO[C@H]1/C=C/O[C@@]2(C)Oc3c(C)c(O)c4c(O)c(cc(O)c4c3C2=O)NC(=O)/C(C)=C\C=C\[C@H](C)[C@H](O)[C@@H](C)[C@@H](O)[C@@H](C)[C@H](OC(C)=O)[C@@H]1C [rifamycin-sv] | 102.6 ± 0.71% | 101 ± 1.5% | 103 ± 2.9% | 103 ± 4.1% | 95.8 ± 5.3% | 89.1% | 90.3% | 106% | 96.5% | 97% | 99.2 ± 5.4% | 92.7 ± 7.1% | 110 ± 4% | 88 ± 5.7% | 92.2 ± 7.7% | 101 ± 2.6% | 102 ± 3.1% | 100% | 105 ± 2.8% | 100 ± 1.8% | 99.5 ± 3.5% | 96.8 ± 1.3% | 99.4 ± 2.4% | 97.2 ± 2.3% | 99.3 ± 4.4% | > 10 µM | > 10 µM | > 10 µM | > 10 µM | > 10 µM | 0 | 0 | 0.25 ± 0.35 | 0 | 0
7 | C/C=C1\NC(=O)[C@H]2CSSCC/C=C/[C@H](CC(=O)N[C@H](C(C)C)C(=O)N2)OC(=O)[C@H](C(C)C)NC1=O [romidepsin] | 104% | 124% | 6.6% | 1.4% | 0.2% | 92.5% | 39.4% | 8.7% | 6.3% | 2.5% | 87.1% | 31.9% | 0.5% | -0.4% | 0.1% | 96.9% | 55.5% | 5.6% | 0.5% | 0.2% | 98.1% | 102% | 87.8% | 0.1% | -0.1% | 0.0451 µM | 0.0068 µM | 0.0052 µM | 0.0117 µM | 0.217 µM | 28.5 | 37 | 39.4 | 35.1 | 20
8 | CN1CCN(c2nc(C3=C(c4c[nH]c5ccccc45)C(=O)NC3=O)c3ccccc3n2)CC1 [sotrastaurin] | 96.3% | 102% | 99.1% | 86.8% | 89.7% | 101% | 94.6% | 96% | 97.6% | 98.6% | 108% | 107% | 101% | 104% | 92.6% | 95.6% | 94% | 103% | 95% | 94.1% | 96.1% | 99.4% | 100% | 99.3% | 101% | > 10 µM | > 10 µM | > 10 µM | > 10 µM | > 10 µM | 0.9 | 0 | 0 | 0 | 0
9 | CCCCNc1ccc(C(=O)OCCN(C)C)cc1 [tetracaine] | 101% | 92.7% | 105% | 100% | 101% | 107% | 101% | 98.2% | 98.4% | 108% | 99.5% | 99.3% | 104% | 104% | 94.3% | 104% | 97.4% | 98.7% | 98.2% | 102% | 107% | 105% | 103% | 101% | 99.5% | > 10 µM | > 10 µM | > 10 µM | > 10 µM | > 10 µM | 0 | 0 | 0 | 0 | 0
10 | CCCCS(=O)(=O)N[C@@H](Cc1ccc(OCCCCC2CCNCC2)cc1)C(=O)O [tirofiban] | 94% | 99.9% | 98.3% | 104% | 107% | 94.5% | 84.1% | 96.3% | 105% | 110% | 99.1% | 102% | 104% | 91.5% | 99.6% | 95.5% | 98.5% | 98.7% | 101% | 105% | 94.8% | 93.5% | 93.7% | 86.3% | 101% | > 10 µM | > 10 µM | > 10 µM | > 10 µM | > 10 µM | 0 | 0 | 0 | 0 | 0
11 | Cc1c(Cl)cccc1Nc1ccccc1C(=O)O [tolfenamic-acid] | 95.7% | 99% | 102% | 96.4% | 107% | 98.8% | 96.3% | 92.7% | 92.4% | 101% | 98.4% | 111% | 106% | 110% | 103% | 98.9% | 95% | 101% | 101% | 98.8% | 98.1% | 103% | 90.4% | 98.8% | 101% | > 10 µM | > 10 µM | > 10 µM | > 10 µM | > 10 µM | 0 | 0 | 0 | 0 | 0
